According to patent publication US20240058329A1, “OPHTHALMIC COMPOSITION OF RIFAMYCIN, AND USE THEREOF” (BNC KOREA CO., LTD., priority 2020, published 2024):
Where two headings read alike, the source gives them in different places. Marks after values point to notes of the source that are not given here.

What was measured:
[1] = Rabbit; 0.5%, 50 μL, 250 μg; Sigurdsson et al. (2007); cited from earlier work
[2] = 3% rifampicin solution, boric acid buffer
Method: In the present example, the pH value was set to be pH 2 to 12, and the concentration of a nonionic surfactant was set to be 0.001% by weight to 50% by weight. As buffer solutions, a boric acid buffer solution, and a phosphoric acid buffer solution and a citric acid buffer solution were used.
A 50 mM phosphoric acid buffer solution, a 50 mM citric acid buffer solution, or a 25 mM boric acid-borax buffer solution (all of which were final concentrations) was prepared, and thereafter, about 0.9% sodium chloride, about 0.1% EDTA, 0.01% benzalkonium chloride (all of which were final concentrations), and various concentrations of nonionic surfactants (Tween 80 or Polyoxyethylene (7) alkyl (sec-C11-15) ethers) were mixed into the solution. […] In the case of using a citric acid buffer solution, the pH value of the mixed solution was adjusted using hydrochloric acid under conditions of pH 2.6 or less. In the case of using boric acid, the pH value was adjusted using hydrochloric acid under conditions of pH 5.7 or less. […] The thus prepared solutions were continuously blended for about 2 hours, and the pH value thereof was measured at 25° C.

[3] = test system: oxygen-induced retinopathy rat models; assay: Neovascularization in retina quantified by capillaries in histology sections; type: in vivo, Sprague-Dawley rat; details: n = 3, vehicle only control 16.3
Method: Oxygen-induced retinopathy rat models were produced according to the protocols of Yanni et al. (2010) and Dorfmann et al. (2008). Sprague-Dawley rat babies (and their nursing mothers) were exposed to a cycling oxygen environment (80% and 21%, about one day for each) for 15 days after starting from the day of birth (Day 0). On Day 15 (P15), the animals were moved to room air. […] An eye drop formulation shown as Example 1 A in Table 1, or a vehicle only was administered to the eyes of the baby rats every day, for 5 days between P15 and P19, in the morning, about the noon, and in the evening. […] On P20, all of the animals were euthanized, and the retina was visualized as histology sections. In those histology sections, capillaries in the retinal tissues in 3 eye balls (AMD 101 topical application, AMD 101 SC injection administration group, and non-induction of retinopathy) or 5 eye balls (control administration group of a vehicle only) were counted, so that neovascularization was quantified. These eye balls were selected from different animals in the above-described administration groups. Representative images of the histology sections are shown (see FIGS. 1A to 1H).

[4] = Retina exposure level of rifampicin after application of topical eye drops (3 or 10 drops), LC/MS; type: in vivo, Sprague-Dawley rats; details: for Drug amount detected in retina: Rat, 0.25%, present study; for Rifampicin extracted from retina: rat, average of n = 3
Method: The remaining two rats received the same application, but 10 drops of the eye drops, in each eye under isoflurane sedation. A single drop contained 5 μL of the above-described formulation, and application of each drug drop was carried out with intervals of 30 minutes. After the eye drop application, the retina was excised from each rat under a dissection microscope. In addition, “non-treated” negative controls were used, and the retina was excised from two rats without performing any treatments on the rats. The retina was placed in a 1.5-ml microcentrifuge tube (1 retina/tube), and was fully washed with DPBS. After completion of the washing procedures, the retinal tissues in the microcentrifuge tube were frozen in dry ice, and were then preserved for quantification by LC/MS analysis.

C[C@@H]1C[C@H]2[C@@H]3CCC4=CC(=O)C=C[C@]4(C)[C@@]3(F)[C@@H](O)C[C@]2(C)[C@@]1(O)C(=O)CO [Dexamethasone]
Drug amount detected in retina [1]: About 33 ng/1 g of ng/1 g of retinal tissues

CO[C@H]1/C=C/O[C@@]2(C)Oc3c(C)c(O)c4c(O)c(c(/C=N/N5CCN(C)CC5)c(O)c4c3C2=O)NC(=O)/C(C)=C\C=C\[C@H](C)[C@H](O)[C@@H](C)[C@@H](O)[C@@H](C)[C@H](OC(C)=O)[C@@H]1C [rifampicin]
pH at which solubilization of rifampicin does not need addition of a surfactant ([…]): ≥ 8.5 | rifampicin concentration whose solubilization did not need addition of a surfactant (pH range of pH 2 to pH 12): ≤ 0.002 % by weight | nonionic surfactant addition by which the composition is solubilized (from relational expression) ([2]; pH 3.0): about 8.2% | nonionic surfactant addition by which the composition is solubilized (from relational expression) ([2]; pH 4.0): about 10.7% | Average numbers of capillaries in high power field per eye ([3]; 0.25% AMD101 topical eye drop (Example 1A), three times a day P15 to P19): 7.78 | Average numbers of capillaries in high power field per eye ([3]; 0.5% AMD101 SC injection (Example 6A), 20 mg/Kg once a day P15 to P19): 9.28 | Drug amount detected in retina ([4]; 3 drops (15 μL, 37.5 μg)): About 1,288 ng/1 g of ng/1 g of retinal tissues | Drug amount detected in retina ([4]; 10 drops (50 μL, 125 μg)): About 2,939 ng/1 g of ng/1 g of retinal tissues | Rifampicin extracted from retina ([4]; 3 drops (5 μL each, 30 min intervals) of 0.25% rifampicin eye drops (Example 1A) per eye): 1,288* ng/1 g of tissues | Rifampicin extracted from retina ([4]; 10 drops (5 μL each, 30 min intervals) of 0.25% rifampicin eye drops (Example 1A) per eye): 2,939* ng/1 g of tissues
